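The concentration for 50% growth inhibition is given as GI50. Definition used: TGI = concentration required for complete inhibition of growth.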
Legend:
Assay in all cases: NCI-60 cell line screen, 384-well format
[1] = test system: HCT-116 colon
[2] = test system: SR leukemia
[3] = test system: OVCAR-5 ovarian
[4] = test system: U251 glioblastoma
[5] = test system: SK-MEL-2 melanoma
[6] = test system: SK-OV-3 ovarian
[7] = test system: OVCAR-4 ovarian
[8] = test system: SW-620 colon
[9] = test system: UO-31 renal
[10] = test system: UACC-257 melanoma
[11] = test system: MOLT-4 leukemia
[12] = test system: 786-0 renal
[13] = test system: DU-145 prostate

Which GI50 [1] does the source give for `COc1ccc([C@@H](O)c2cc(-c3ncnc4cc(N5CCOCC5)ccc34)c(F)cc2Cl)nn1` here?
The GI50 was 3.88 µM.

And the TGI [1]?
Its TGI is 16.4 µM.

What about the GI50 [2] of the same molecule?
The GI50 was 6.08 µM.

What about the TGI [2] of the same molecule?
Its TGI is 19.5 µM.

And the GI50 [3]?
The GI50 was 3.47 µM.

What about the TGI [3] of the same molecule?
The TGI was 21 µM.

And the GI50 [4]?
Its GI50 is 8.43 µM.

And the TGI [4]?
The TGI was 26.1 µM.

And the GI50 [5]?
Its GI50 is 16.1 µM.

And the TGI [5]?
The TGI was 31.2 µM.

What about the GI50 [6] of the same molecule?
The GI50 was 1.57 µM.

What about the TGI [6] of the same molecule?
Its TGI is 6.2 µM.

What about the GI50 [7] of the same molecule?
Its GI50 is 5.02 µM.

What about the TGI [7] of the same molecule?
The TGI was 26.2 µM.

What about the GI50 [8] of the same molecule?
The GI50 was 5.21 µM.

And the TGI [8]?
The TGI was 18.9 µM.

And the GI50 [9]?
Its GI50 is 1.95 µM.

And the TGI [9]?
The TGI was 11.6 µM.

What about the GI50 [10] of the same molecule?
Its GI50 is 3.59 µM.

What about the TGI [10] of the same molecule?
Its TGI is 17.8 µM.

What about the GI50 [11] of the same molecule?
The GI50 was 0.892 µM.

What about the TGI [11] of the same molecule?
The TGI was 2.31 µM.

What about the GI50 [12] of the same molecule?
Its GI50 is 2.6 µM.

What about the TGI [12] of the same molecule?
The TGI was 17.8 µM.

What about the GI50 [13] of the same molecule?
The GI50 was 4.21 µM.

What about the TGI [13] of the same molecule?
Its TGI is 18.8 µM.

— PubChem BioAssay (NCI)
